According to patent US12023378B2, “Covalently linked antigen-antibody conjugates” (Hoffmann-La Roche Inc., priority 2012, dated 2024):

Tests used:
[1] = Dig-peptide serum kinetic: Western blot detection of digoxigenylated polypeptide in serum; format: in vivo, mouse
Protocol: (§1) Serum samples were stored at −80° C.
The determination of the amount of digoxigenylated peptide in the serum at the given time points was difficult compared to the detection of Dig-Cy5 as no direct means to detect the polypeptide in serum samples was available. Therefore, a Western-Blot related assay to detect digoxigenylated peptide in serum was established. In a first step, the serum samples were separated on reducing SDS-PAGE. Because sample preparation included exposure of the serum to high concentrations of SDS and reducing agents, complexed Dig-polypeptide conjugates can become released from the (completely denatured/unfolded) anti-digoxigenin antibody, whereas covalently conjugates remained bound. To mediate the release of the polypeptide from the non-covalent antibody complex and separate the individual components by SDS-PAGE, 2 μl of each serum sample was diluted in 18 μl 20 mM histidine/140 mM NaCl pH 6.0, mixed with 6.7 μl of 4×LDS sample buffer and 3 μl of 10× sample reducing agent (NuPAGE, Invitrogen) for 5 min at 95° C. As a control, 2 μl of serum of an untreated mouse of the same strain was used. […] Digoxigenylated polypeptides were subsequently detected on the membrane with an anti-digoxigenin antibody. […] Chemiluminescence was detected with the Lumilmager F1 (Roche) with an exposure time of 20 min.

[2] = mouse, in vivo
Protocol: The objective of the described peptide modification technology is to improve the therapeutic applicability of peptides. Major bottlenecks for therapeutic application of peptides are currently limited stability in vivo and/or short serum half-life and fast clearance. The PK parameters of antibody conjugates of fluorophores were determined in vivo and compare with the PK of non-covalent antibody-fluorophore complexes. Therefore, (i) the anti-biotin antibody VH53C was covalently conjugated to the biotinylated fluorophore Biot-Cys-Cy5, (ii) a non-covalent complex of the anti-biotin antibody with biotinylated fluorophore Biot-Cy5 was generated, (iii) the covalently conjugated and the non-covalently complexed compounds were applied to animals and (iv) the serum concentrations of the compounds over time in these animals was measured by determination of the fluorescence of Cy5 (A650), and that of the corresponding antibody by an ELISA method that specifically detects the humanized antibody.
as §1

[3] = mouse, in vivo; remark: listed apart in the source
Text: The control group was not pre-injected with the anti-biotin antibody.

relative Cy5-mediated fluorescence in serum [2]	Compound	presence of digoxigenylated polypeptide in serum (Western blot signal) ([1]; 32.1 nmol, 0.08 h to 24 h after administration, FIG. 35)	half-life / persistence in the serum of mice ([1]; Western blot, up to 24 hrs.)	serum half-life and exposure levels [3]
–	CC[C@H](C)[C@H](NC(C)=O)C(=O)N[C@@H](CCCCNC(=O)CCOCCOCCOCCNC(=O)CO[C@H]1CC[C@@]2(C)[C@H](CC[C@@H]3[C@@H]2C[C@@H](O)[C@]2(C)[C@@H](C4=CC(=O)OC4)CC[C@]32O)C1)C(=O)N1CCN(c2ccc3ncn(CC(=O)N[C@@H](CCCNC(=N)N)C(=O)N[C@@H](Cc4c[nH]cn4)C(=O)N[C@@H](Cc4ccc(O)cc4)C(=O)N[C@@H](CC(C)C)C(=O)N[C@@H](CC(N)=O)C(=O)N[C@@H](Cc4c[nH]c5ccccc45)C(=O)N[C@H](C(=O)N[C@H](C(=O)N[C@@H](CCCNC(=N)N)C(=O)N[C@@H](CCC(N)=O)C(=O)N(C)[C@@H](CCCNC(=N)N)C(=O)N[C@@H](Cc4ccc(O)cc4)C(N)=O)[C@@H](C)O)C(C)C)c(=O)c3c2)CC1 [non-complexed polypeptide]	barely any signal associable to the small polypeptide was detectable even at the earliest time point	very short half-life	–
not detectable	Biotin-O2Oc-Ser-O2Oc-DADOO-Cy5 [Biotin-Ser-Cy5]	–	–	low serum half-life and low exposure levels
